Assay results reported in patent US11021457B2, “Class of isoindolone-imide ring-1,3-dione-2-ene compounds, composition and use thereof” (WIGEN BIOMEDICINE TECHNOLOGY (SHANGHAI) CO., LTD., priority 2017, dated 2021).

Columns and labels:
[1] = system: K562; assay: Inhibition of tumor cell proliferation, CellTiter-Glo, K562; assay type: cell-based; conditions: compound concentration 50 μM, 72 hours
Outline: (§1)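 Compound tested at 50 μM for 72 h, read by CellTiter-Glo. Survival rate = (treated−blank)/(control−blank) RLU ×100, binned as +++ ≤30%, ++ >30-≤60%, + 60-<90%. Seeding 2000-10000 cells/well depending on growth rate.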

[2] = system: SU-DHL6; assay: Inhibition of tumor cell proliferation, CellTiter-Glo, SU-DHL6; assay type: cell-based; conditions: compound concentration 50 μM, 72 hours
Outline: as §1

[3] = system: BxPC-3; assay: Inhibition of tumor cell proliferation, CellTiter-Glo, BxPC-3; assay type: cell-based; conditions: compound concentration 50 μM, 72 hours
Outline: as §1

[4] = system: A549; assay: Inhibition of tumor cell proliferation, CellTiter-Glo, A549; assay type: cell-based; conditions: compound concentration 50 μM, 72 hours
Outline: as §1

[5] = system: MDA-MB-453; assay: Inhibition of tumor cell proliferation, CellTiter-Glo, MDA-MB-453; assay type: cell-based; conditions: compound concentration 50 μM, 72 hours
Outline: as §1

[6] = system: RPMI-8226; assay: Inhibition of tumor cell proliferation, CellTiter-Glo, RPMI-8226; assay type: cell-based; conditions: compound concentration 50 μM, 72 hours
Outline: as §1

[7] = molecular target: LC3B (Homo sapiens (Human), UniProt Q9GZQ8); assay: Fluorescence polarization experiment targeting LC3B (GST-LC3B with FITC-labeled peptide); conditions: GST-LC3B 180 nM, FITC-labeled peptide 18 nM, 25° C.

| Structure (SMILES) | Inhibitory activity against proliferation (cell survival rate) K562 [1] | Inhibitory activity against proliferation (cell survival rate) SU-DHL6 [2] | Inhibitory activity against proliferation (cell survival rate) BxPC-3 [3] | Inhibitory activity against proliferation (cell survival rate) A549 [4] | Inhibitory activity against proliferation (cell survival rate) MDA-MB-453 [5] | Inhibitory activity against proliferation (cell survival rate) RPMI-8226 [6] | IC50 [7] [nM] |
| --- | --- | --- | --- | --- | --- | --- | --- |
| O=C1CCC(N2Cc3c(NC=C4C(=O)CC(c5cccc6[nH]ncc56)CC4=O)cccc3C2=O)C(=O)N1 (centres unmarked) [Compound 39] | +++ (survival rate (%)≤30) | ++ (30<survival rate (%)≤60) | ++ (30<survival rate (%)≤60) | + (60≤survival rate (%)<90) | +++ (survival rate (%)≤30) | + (60≤survival rate (%)<90) | < 3000 |
| O=C1CCC(N2Cc3c(NC=C4C(=O)CC(c5c(Br)ccc6[nH]cc(C(F)(F)F)c56)CC4=O)cccc3C2=O)C(=O)N1 (centres unmarked) [Compound 16] | + (60≤survival rate (%)<90) | + (60≤survival rate (%)<90) | + (60≤survival rate (%)<90) | + (60≤survival rate (%)<90) | + (60≤survival rate (%)<90) | +++ (survival rate (%)≤30) | < 3000 |
| O=C1CCC(N2C(=O)c3cccc(NC=C4C(=O)CC(c5cccc6[nH]cc(Cl)c56)CC4=O)c3C2=O)C(=O)N1 (centres unmarked) [Compound 12] | + (60≤survival rate (%)<90) | + (60≤survival rate (%)<90) | + (60≤survival rate (%)<90) | + (60≤survival rate (%)<90) | + (60≤survival rate (%)<90) | + (60≤survival rate (%)<90) | < 3000 |
| O=C1CCC(N2Cc3c(NC=C4C(=O)CC(c5cc(O)ccc5Br)CC4=O)cccc3C2=O)C(=O)N1 (centres unmarked) [Compound 148] | ++ (30<survival rate (%)≤60) | +++ (survival rate (%)≤30) | + (60≤survival rate (%)<90) | +++ (survival rate (%)≤30) | +++ (survival rate (%)≤30) | ++ (30<survival rate (%)≤60) | < 3000 |
| O=C1CCC(N2C(=O)c3cccc(NC=C4C(=O)CC(c5c(Br)ccc6[nH]cc(Cl)c56)CC4=O)c3C2=O)C(=O)N1 (centres unmarked) [Compound 13] | + (60≤survival rate (%)<90) | ++ (30<survival rate (%)≤60) | ++ (30<survival rate (%)≤60) | +++ (survival rate (%)≤30) | +++ (survival rate (%)≤30) | + (60≤survival rate (%)<90) | < 3000 |
| CC(C)[C@H](NC(=O)CCC(=O)OCCN1CCN(CCNC=C2C(=O)CC(c3ccccc3)CC2=O)CC1)C(=O)N[C@@H](CCCNC(N)=O)C(=O)Nc1ccc(COC(=O)Nc2cccc3c2CN(C2CCC(=O)NC2=O)C3=O)cc1 (some centres unmarked) [Compound 89] | ++ (30<survival rate (%)≤60) | ++ (30<survival rate (%)≤60) | + (60≤survival rate (%)<90) | ++ (30<survival rate (%)≤60) | +++ (survival rate (%)≤30) | ++ (30<survival rate (%)≤60) | 15000 to 100000 |
| O=C1CCC(N2Cc3c(NC=C4C(=O)CC(c5cc6[nH]ccc6cc5Br)CC4=O)cccc3C2=O)C(=O)N1 (centres unmarked) [Compound 149] | +++ (survival rate (%)≤30) | +++ (survival rate (%)≤30) | + (60≤survival rate (%)<90) | + (60≤survival rate (%)<90) | +++ (survival rate (%)≤30) | +++ (survival rate (%)≤30) | < 3000 |
| O=C1CCC(N2Cc3c(NC=C4C(=O)CC(c5c[nH]c6cccc(F)c56)CC4=O)cccc3C2=O)C(=O)N1 (centres unmarked) [Compound 41] | +++ (survival rate (%)≤30) | + (60≤survival rate (%)<90) | + (60≤survival rate (%)<90) | +++ (survival rate (%)≤30) | + (60≤survival rate (%)<90) | + (60≤survival rate (%)<90) | < 3000 |
